These results are taken from patent EP4043444A1, “SUBSTITUTED ISOXAZOLINE DERIVATIVES” (priority 2021, dated 2022).

Each structure is given as a SMILES string.

Assay type in all cases: in vivo
The test system of test [1] is Boll weevil (Anthonomus grandis). Kind of test: Boll weevil control, 96-well microtiter plates with insect diet and eggs. Particulars: Anthonomus grandis, 120 h, read-out: mortality (Egg and larval mortality). Here is the method: For evaluating control of boll weevil, the test unit consisted of 96-well-microtiter plates containing an insect diet and 5-10 A. grandis eggs.
The compounds were formulated using a solution containing 75% v/v water and 25% v/v DMSO. Different concentrations of formulated compounds were sprayed onto the insect diet at 5µl, using a custom-built micro atomizer, at two replications.
After application, microtiter plates were incubated at about 25 + 1°C and about 75 + 5 % relative humidity for 5 days. Egg and larval mortality were then visually assessed.

In test [2] the test system is Tobacco Budworm (Heliothis virescens). Kind of test: Tobacco Budworm control, 96-well microtiter plates with insect diet and eggs. To be noted: Heliothis virescens, 120 h; 2500ppm; sprayed onto insect diet; 5 days; in comparison with untreated controls; read-out: mortality (Egg and larval mortality). As to the method:
For evaluating control of Tobacco Budworm, the test unit consisted of 96-well-microtiter plates containing an insect diet and 15-25 H. virescens eggs. The compounds were formulated using a solution containing 75% v/v water and 25% v/v DMSO. Different concentrations of formulated compounds were sprayed onto the insect diet at 10µl, using a custom-built micro atomizer, at two replications. After application, microtiter plates were incubated at about 28 + 1°C and about 80 + 5 % relative humidity for 5 days. Egg and larval mortality was then visually assessed.

In test [3] the test system is Yellow Fever Mosquito (Aedes aegypti). Kind of test: whole plant or invertebrate. Particulars: 48 h, 2 days, in comparison with untreated controls, read-out: mortality (Larval mortality). Here is the method:
For evaluating control of Yellow Fever Mosquito the test unit consisted of 96-well-microtiter plates containing 200µl of tap water per well and 5-15 freshly hatched A. aegypti larvae. The active compounds were formulated using a solution containing 75% (v/v) water and 25% (v/v) DMSO. Different concentrations of formulated compounds or mixtures were sprayed onto the insect diet at 2.5µl, using a custom-built micro atomizer, at two replications.
After application, microtiter plates were incubated at 28 + 1°C, 80 + 5 % RH for 2 days. Larval mortality was then visually assessed.

`O=C(CC1CC1)Nc1c(F)ccc(NC(=O)c2cc(NC3=NOC(c4cc(Cl)cc(Cl)c4)(C(F)(F)F)C3)ccc2Cl)c1F` (stereo not drawn) [I-10]: the mortality at 2500 ppm in test [1], in test [2] and in test [3] was not below 75% throughout.

Regarding `N#CC1(NC(=O)c2c(F)ccc(NC3=NOC(c4cc(Cl)cc(Cl)c4)(C(F)(F)F)C3)c2F)CC1` (stereo not drawn) [I-11, N-(1-cyanocyclopropyl)-3-[[5-(3,5-dichlorophenyl)-5-(trifluoromethyl)-4H-isoxazol-3-yl]amino]-2,6-difluoro-benzamide], the mortality at 2500 ppm in test [2] and in test [3] was not below 75% in each case.

Turning to `N#CC1(NC(=O)c2cc(N(CC3CC3)C3=NOC(c4cc(Cl)cc(Cl)c4)(C(F)(F)F)C3)ccc2Cl)CC1` (stereo not drawn) [I-25, 2-chloro-N-(1-cyanocyclopropyl)-5-[cyclopropylmethyl-[5-(3,5-dichlorophenyl)-5-(trifluoromethyl)-4H-isoxazol-3-yl]amino]benzamide], the mortality at 2500 ppm in test [1], in test [2] and in test [3] was not below 75% throughout.

Turning to `CCOC(=O)N(C1=NOC(c2cc(Cl)cc(Cl)c2)(C(F)(F)F)C1)c1ccc(Cl)c(C(=O)NC2(C#N)CC2)c1` (stereo not drawn) [I-28, ethyl N-[4-chloro-3-[(1-cyanocyclopropyl)carbamoyl]phenyl]-N-[5-(3,5-dichlorophenyl)-5-(trifluoromethyl)-4H-isoxazol-3-yl]carbamate], the mortality at 2500 ppm in test [1], in test [2] and in test [3] was not below 75% in each case.

With `O=C(NCc1ccccn1)c1ccc(NC2=NOC(c3cc(Cl)cc(Cl)c3)(C(F)(F)F)C2)cc1Cl` (stereo not drawn) [I-70], the mortality at 2500 ppm in test [1], in test [2] and in test [3] was not below 75% each time.

As to `CCN1OC[C@@H](NC(=O)c2ccc(NC3=NOC(c4cc(Cl)cc(Cl)c4)(C(F)(F)F)C3)cc2Cl)C1=O` (stereo partly drawn) [I-71], the mortality at 2500 ppm in test [3] was not below 75%.

As for `CC(C)(C#N)NC(=O)c1cc(NC2=NOC(c3cc(Cl)c(F)c(Cl)c3)(C(F)(F)F)C2)ccc1Cl` (stereo not drawn) [I-75, 2-chloro-N-(1-cyano-1-methyl-ethyl)-5-[[5-(3,5-dichloro-4-fluoro-phenyl)-5-(trifluoromethyl)-4H-isoxazol-3-yl]amino]benzamide], the mortality at 2500 ppm in test [1] and in test [2] was not below 75% in each case.

Consider `CCOC(=O)N(C1=NOC(c2cc(Cl)cc(Cl)c2)(C(F)(F)F)C1)c1ccc(Cl)c(C(=O)N(C(=O)OCC)C2(C#N)CC2)c1` (stereo not drawn) [I-142, ethyl N-[4-chloro-3-[(1-cyanocyclopropyl)-ethoxycarbonyl-carbamoyl]-phenyl]-N-[5-(3,5-dichlorophenyl)-5-(trifluoromethyl)-4H-isoxazol-3-yl]carbamate], for which the mortality at 2500 ppm in test [1], in test [2] and in test [3] was not below 75% throughout.

As to `COc1ccc(NC2=NOC(c3cc(Cl)cc(Cl)c3)(C(F)(F)F)C2)cc1C(=O)NC1(C#N)CC1` (stereo not drawn) [I-147], the mortality at 2500 ppm in test [1] and in test [3] was not below 75% each time.

`N#CC1(NC(=O)c2cc(NC3=NOC(c4cc(Cl)cc(Cl)c4)(C(F)(F)F)C3)ccc2OC(F)F)CC1` (stereo not drawn) [I-148]: the mortality at 2500 ppm in test [1], in test [2] and in test [3] was not below 75% in each case.

On to `N#CC1(NC(=O)c2cc(NC3=NOC(c4cc(Cl)cc(Cl)c4)(C(F)(F)F)C3)ccc2C(F)(F)F)CC1` (stereo not drawn) [I-149], for which the mortality at 2500 ppm in test [1], in test [2] and in test [3] was not below 75% each time.

Regarding `O=C(Nc1ccc(F)cc1F)c1cc(NC2=NOC(c3cc(Cl)cc(Cl)c3)(C(F)(F)F)C2)ccc1OC(F)(F)F` (stereo not drawn) [I-159], the mortality at 2500 ppm in test [1], in test [2] and in test [3] was not below 75% in each case.

In the case of `N#Cc1c(NC2=NOC(c3cc(Cl)cc(Cl)c3)(C(F)(F)F)C2)cccc1C(=O)NC1CC1` (stereo not drawn) [I-173], the mortality at 2500 ppm in test [2] and in test [3] was not below 75% throughout.

By mortality is commonly meant the percentage killed.
